Results: PubChem BioAssay (NCI)
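Following 48 hours of exposure in 96-well plates, responses at five concentrations were used to interpolate endpoints linearly. GI50 is the concentration that inhibits growth by half. TGI marks complete inhibition of growth.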

Columns and labels:
Assay in all cases: growth of human tumour cells (NCI), 48 h
[1] = test system: UO-31 renal
[2] = test system: HOP-62 NSCLC
[3] = test system: SR leukemia
[4] = test system: HCT-116 colon
[5] = test system: HL-60(TB) leukemia
[6] = test system: UACC-62 melanoma
[7] = test system: NCI-H23 lung
[8] = test system: OVCAR-4 ovarian
[9] = test system: SF-295 CNS
[10] = test system: HCC-2998 colon

CC(C)(C)[Si](C)(C)OCC1OC(n2cnc3c(N)ncnc32)CC1O (stereo unspecified)
TGI [1]: > 100 µM
TGI [2]: > 100 µM
TGI [3]: > 100 µM
TGI [4]: > 100 µM
TGI [5]: > 100 µM
TGI [6]: > 100 µM
TGI [7]: > 100 µM
TGI [8]: > 100 µM
TGI [9]: > 100 µM

Cc1cc(C)n(-c2nsc3ccccc23)n1
TGI [1]: > 100 µM
TGI [2]: > 100 µM
TGI [3]: > 100 µM
TGI [4]: > 100 µM
TGI [5]: > 100 µM
TGI [6]: > 100 µM
TGI [10]: > 100 µM
TGI [7]: > 100 µM
TGI [8]: > 100 µM

CCN(CC)CCNc1ccc2nnn3c4ccc(C)cc4c(=O)c1c23
TGI [1]: 22.2 µM
TGI [2]: 28.9 µM
TGI [3]: 13.1 µM
TGI [4]: 15 µM
TGI [5]: 16.8 µM
TGI [6]: 27.1 µM
TGI [7]: 24.7 µM
TGI [8]: 25.2 µM
TGI [9]: 18 µM

N#CN=[N+]([O-])c1ccc(C(=O)O)cc1
TGI [1]: 30.3 µM
TGI [2]: 30.7 µM
TGI [6]: 31.4 µM
TGI [10]: > 100 µM
TGI [7]: 33.7 µM
TGI [8]: 35.8 µM
TGI [9]: > 100 µM

Fc1ccc(C2CC(c3cccc(Nc4ccncc4)c3)=NN2c2ccc(Cl)cc2)cc1 (stereo unspecified)
GI50 [1]: 1.42 µM
TGI [1]: 2.76 µM
GI50 [3]: 1.79 µM
TGI [3]: 4.23 µM
GI50 [4]: 1.73 µM
TGI [4]: 3.39 µM
GI50 [5]: 1.95 µM
TGI [5]: 4.22 µM
GI50 [6]: 1.73 µM
TGI [6]: 3.19 µM
GI50 [10]: 1.55 µM
TGI [10]: 2.96 µM
GI50 [7]: 1.84 µM
TGI [7]: 3.62 µM
GI50 [8]: 1.64 µM
TGI [8]: 3.05 µM
GI50 [9]: 1.8 µM
TGI [9]: 3.23 µM

O=C1CSC(=S)N1
TGI [1]: > 100 µM
TGI [2]: > 100 µM
TGI [3]: > 100 µM
TGI [4]: > 100 µM
TGI [5]: > 100 µM
TGI [10]: > 100 µM
TGI [7]: > 100 µM
TGI [9]: > 100 µM

CC(=O)c1ccc2c(c1)c1c(C)c3c[n+](C)ccc3c(C)c1n2C
TGI [1]: > 23.7 µM
TGI [2]: 38.2 µM
TGI [4]: 18.8 µM
TGI [5]: > 68.6 µM
TGI [6]: 8.23 µM
TGI [10]: > 100 µM
TGI [8]: 54.4 µM
TGI [9]: 10.3 µM

Cc1ccc2c(c1)C(=O)N(N(C)C)CC(=O)N2
TGI [1]: > 100 µM
TGI [2]: > 100 µM
TGI [3]: > 100 µM
TGI [4]: > 100 µM
TGI [5]: > 100 µM
TGI [6]: > 100 µM
TGI [10]: > 100 µM
TGI [7]: > 100 µM
TGI [8]: > 100 µM
TGI [9]: > 100 µM

NCCCOc1ccc([N+](=O)[O-])cc1Cl
TGI [1]: > 100 µM
TGI [2]: > 100 µM
TGI [3]: > 100 µM
TGI [4]: > 100 µM
TGI [5]: > 100 µM
TGI [6]: > 100 µM
TGI [10]: > 100 µM
TGI [7]: > 100 µM
TGI [8]: > 100 µM
TGI [9]: > 100 µM

Cc1cc2c(cc1C)OC(=O)CC2
TGI [1]: > 100 µM
TGI [2]: > 100 µM
TGI [3]: > 100 µM
TGI [4]: > 100 µM
TGI [5]: > 100 µM
TGI [6]: > 100 µM
TGI [10]: > 100 µM
TGI [7]: > 100 µM
TGI [8]: > 100 µM
TGI [9]: > 100 µM

O=C1NC2=C(CCCC/C2=N\O)C12CCCCC2
TGI [1]: > 100 µM
TGI [2]: > 100 µM
TGI [3]: > 100 µM
TGI [4]: > 100 µM
TGI [5]: > 100 µM
TGI [6]: > 100 µM
TGI [10]: > 100 µM
TGI [7]: > 100 µM
TGI [8]: > 100 µM
TGI [9]: > 100 µM

CC(=O)OCC1=C(C(=O)O)N2C(=O)C(NC(=O)CSc3ccncc3)C2SC1 (stereo unspecified)
TGI [1]: > 100 µM
TGI [2]: > 100 µM
TGI [3]: > 100 µM
TGI [4]: > 100 µM
TGI [5]: > 100 µM
TGI [6]: > 100 µM
TGI [10]: > 100 µM
TGI [7]: > 100 µM
TGI [9]: > 100 µM

Brc1ccc(C2CC(c3cccc4ccccc34)=Nc3ccccc3S2)cc1 (stereo unspecified)
TGI [1]: > 100 µM
TGI [2]: > 100 µM
TGI [3]: > 100 µM
TGI [4]: > 100 µM
TGI [5]: > 100 µM
TGI [6]: > 100 µM
TGI [10]: > 100 µM
TGI [7]: > 100 µM
TGI [8]: > 100 µM
TGI [9]: > 100 µM

CCOC(=O)NC(Nc1ncccn1)(C(=O)OCC)C(F)(F)F (stereo unspecified)
TGI [1]: > 100 µM
TGI [3]: > 100 µM
TGI [4]: > 100 µM
TGI [5]: > 100 µM
TGI [6]: > 100 µM
TGI [10]: > 100 µM
TGI [7]: > 100 µM
TGI [8]: > 100 µM
TGI [9]: > 100 µM
